Activity calls are given as the source filed them. The rule behind the calls is not given here.
Tests used:
[1] = tested on: HepG2; assay: Cytotoxicity against human HepG2 cells assessed as cell growth inhibition measured after 72 hrs by MTT assay; format: functional
[2] = tested on: HeLa; assay: Cytotoxicity against human HeLa cells assessed as cell growth inhibition measured after 72 hrs by MTT assay; format: functional
[3] = tested on: THP-1; assay: Cytotoxicity against human THP-1 cells assessed as cell growth inhibition measured after 72 hrs by MTT assay; format: functional
[4] = Cytotoxicity against human HaCaT cells assessed as cell growth inhibition measured after 72 hrs by MTT assay; format: cell-based
[5] = tested on: HepG2; assay: Cytotoxicity against human HepG2 cells assessed as cell growth inhibition measured after 24 hrs by MTT assay; format: functional
[6] = tested on: HepG2; assay: Cytotoxicity against human HepG2 cells assessed as cell growth inhibition measured after 24 hrs by neutral red uptake assay; format: functional
[7] = tested on: HepG2; assay: Cytotoxicity against human HepG2 cells assessed as cell growth inhibition measured after 48 hrs by neutral red uptake assay; format: functional
[8] = tested on: HepG2; assay: Cytotoxicity against human HepG2 cells assessed as cell growth inhibition measured after 24 hrs by coomassie brilliant blue staining based total cellular protein assay; format: functional
[9] = tested on: HepG2; assay: Cytotoxicity against human HepG2 cells assessed as cell growth inhibition measured after 48 hrs by coomassie brilliant blue staining based total cellular protein assay; format: functional
[10] = tested on: HepG2; assay: Cytotoxicity against human HepG2 cells assessed as cell growth inhibition measured after 72 hrs by coomassie brilliant blue staining based total cellular protein assay; format: functional
[11] = tested on: HepG2; assay: Cytotoxicity against human HepG2 cells assessed as cell growth inhibition measured after 24 hrs by LDH assay; format: functional
[12] = (§1) Cytotoxicity against mouse BALB/3T3 cells assessed as cell growth inhibition measured after 48 hrs by MTT assay; format: cell-based; details: BALB/3T3 cells
[13] = tested on: BALB/3T3; assay: as §1; format: cell-based; details: balb/3t3, 48 h
[14] = (§2) Cytotoxicity against mouse BALB/3T3 cells assessed as cell growth inhibition measured after 24 hrs by neutral red uptake assay; format: cell-based; details: BALB/3T3 cells
[15] = tested on: BALB/3T3; assay: as §2; format: cell-based; details: balb/3t3, 24 h
[16] = (§3) Cytotoxicity against mouse BALB/3T3 cells assessed as cell growth inhibition measured after 48 hrs by neutral red uptake assay; format: cell-based; details: BALB/3T3 cells
[17] = tested on: BALB/3T3; assay: as §3; format: cell-based; details: balb/3t3, 48 h
[18] = (§4) Cytotoxicity against mouse BALB/3T3 cells assessed as cell growth inhibition measured after 72 hrs by neutral red uptake assay; format: cell-based; details: BALB/3T3 cells
[19] = tested on: BALB/3T3; assay: as §4; format: cell-based; details: balb/3t3, 72 h
[20] = (§5) Cytotoxicity against mouse BALB/3T3 cells assessed as cell growth inhibition measured after 24 hrs by coomassie brilliant blue staining based total cellular protein assay; details: BALB/3T3 cells
[21] = tested on: BALB/3T3; assay: as §5; details: balb/3t3, 24 h
[22] = (§6) Cytotoxicity against mouse BALB/3T3 cells assessed as cell growth inhibition measured after 48 hrs by coomassie brilliant blue staining based total cellular protein assay; details: BALB/3T3 cells
[23] = tested on: BALB/3T3; assay: as §6; details: balb/3t3, 48 h
[24] = (§7) Cytotoxicity against mouse BALB/3T3 cells assessed as cell growth inhibition measured after 24 hrs by LDH assay; format: cell-based; details: BALB/3T3 cells
[25] = tested on: BALB/3T3; assay: as §7; format: cell-based; details: balb/3t3, 24 h
[26] = (§8) Cytotoxicity against mouse BALB/3T3 cells assessed as cell growth inhibition measured after 48 hrs by LDH assay; format: cell-based; details: BALB/3T3 cells
[27] = tested on: BALB/3T3; assay: as §8; format: cell-based; details: balb/3t3, 48 h
[28] = (§9) Cytotoxicity against mouse BALB/3T3 cells assessed as cell growth inhibition measured after 72 hrs by LDH assay; format: cell-based; details: BALB/3T3 cells
[29] = tested on: BALB/3T3; assay: as §9; format: cell-based; details: balb/3t3, 72 h
[30] = tested on: MCF7; assay: Induction of apoptosis in human MCF7 cells assessed as decrease in Cdk2 expression at 45 uM after 24 hrs by Western blot analysis; format: functional, cell-based
[31] = tested on: HepG2; assay: Induction of cell cycle arrest in human HepG2 cells assessed as effect on phospho-Chk2 expression at 45 uM measured after 24 hrs by Western blot analysis; format: functional, cell-based
[32] = tested on: HCT-116; assay: Induction of DNA damage in human HCT-116 cells assessed as increase in tail length at 0.7 uM incubated measured after 24 hrs by alkaline Comet assay; format: functional, cell-based
[33] = tested on: HCT-116; assay: Induction of DNA damage in human HCT-116 cells assessed as increase in tail length incubated at 0.7 uM measured after 24 hrs by alkaline Comet assay relative to control; format: functional
[34] = tested on: HepG2; assay: Induction of DNA damage in human HepG2 cells assessed as increase in tail length incubated at 0.7 uM measured after 24 hrs by alkaline Comet assay; format: functional
[35] = tested on: BALB/3T3; assay: Induction of DNA damage in mouse BALB/3T3 cells assessed as increase in tail length incubated at 55 uM measured after 24 hrs by alkaline Comet assay; format: cell-based; details: balb/3t3, 24 h
[36] = tested on: Salmon testes DNA; assay: Displacement of methyl green from salmon sperm DNA at 1 uM measured after 2 hrs by fluorescence plate reader method relative to control; format: cell-based; details: Salmo salar, Spermatozoa
[37] = Selectivity index, ratio of GI50 for human HaCaT cells to GI50 for human HepG2 cells; format: toxicity; details: HaCaT cells versus HepG2 cells, read-out: RatioGI50
[38] = Selectivity index, ratio of GI50 for human HaCaT cells to GI50 for human HeLa cells; format: toxicity; details: HaCaT cells versus HeLa cells, read-out: RatioGI50
[39] = Selectivity index, ratio of GI50 for human HaCaT cells to GI50 for human A549 cells; format: toxicity; details: HaCaT cells versus A549 cells, read-out: RatioGI50
[40] = Selectivity index, ratio of GI50 for human HaCaT cells to GI50 for human WM793 cells
[41] = Selectivity index, ratio of GI50 for human HaCaT cells to GI50 for human THP-1 cells
[42] = Selectivity index, ratio of GI50 for mouse BALA/3T3 cells to GI50 for human HepG2 cells measured after 48 hrs by neutral red uptake assay; format: toxicity; details: BALA/3T3 cells versus HepG2 cells, read-out: Selectivity Index
[43] = Selectivity index, ratio of GI50 for mouse BALA/3T3 cells to GI50 for human HepG2 cells measured after 72 hrs by neutral red uptake assay; format: toxicity; details: BALA/3T3 cells versus HepG2 cells, read-out: Selectivity Index
[44] = Selectivity index, ratio of GI50 for mouse BALA/3T3 cells to GI50 for human HepG2 cells measured after 72 hrs by coomassie brilliant blue staining based total cellular protein assay; format: toxicity; details: BALA/3T3 cells versus HepG2 cells, read-out: Selectivity Index
[45] = Selectivity index, ratio of GI50 for mouse BALA/3T3 cells to GI50 for human HepG2 cells measured after 48 hrs by LDH assay; format: toxicity; details: BALA/3T3 cells versus HepG2 cells, read-out: Selectivity Index
[46] = Selectivity index, ratio of GI50 for mouse BALA/3T3 cells to GI50 for human HepG2 cells measured after 72 hrs by LDH assay; format: toxicity; details: BALA/3T3 cells versus HepG2 cells, read-out: Selectivity Index

COC(=O)c1[nH]c2ccc(F)cc2c1/C=C1\SC(=S)NC1=O
GI50 [1]: 12.1 µM | GI50 [2]: 49.3 µM | GI50 [3]: 62.4 µM | GI50 at 72 h [4]: 98.3 µM | GI20 [5]: 3 µM | GI80 [5]: 95.6 µM | GI50 ([5]; Homo sapiens, HepG2): 44.7 µM | GI20 [6]: 2.4 µM | GI80 [6]: 80.7 µM | GI50 ([6]; Homo sapiens, HepG2): 40.1 µM | GI20 [7]: 0.06 µM | GI80 [7]: 73.5 µM | GI50 ([7]; Homo sapiens, HepG2): 24.5 µM | GI20 [8]: 3.7 µM | GI80 [8]: >100 µM | GI50 ([8]; Homo sapiens, HepG2): > 100 µM | GI20 [9]: 1.6 µM | GI80 [9]: >100 µM | GI50 ([9]; Homo sapiens, HepG2): 63.9 µM | GI20 [10]: 0.08 µM | GI80 [10]: >100 µM | GI50 ([10]; Homo sapiens, HepG2): 35.6 µM | GI20 [11]: <0.01 µM | GI80 [11]: 20.3 µM | GI50 ([11]; Homo sapiens, HepG2): 0.31 µM | GI50 at 48 h [12]: 25 µM | GI20 [13]: 0.8 µM | GI80 [13]: 84.8 µM | GI50 at 24 h [14]: > 100 µM | GI20 [15]: 5.4 µM | GI80 [15]: > 100 µM | GI50 at 48 h [16]: > 100 µM | GI20 [17]: 2.4 µM | GI80 [17]: > 100 µM | GI50 at 72 h [18]: 51.5 µM | GI20 [19]: 0.7 µM | GI80 [19]: > 100 µM | GI50 at 24 h [20]: > 100 µM | GI20 [21]: 6.1 µM | GI80 [21]: > 100 µM | GI50 at 48 h [22]: > 100 µM | GI20 [23]: 3.7 µM | GI80 [23]: > 100 µM | GI50 at 24 h [24]: > 100 µM | GI20 [25]: > 100 µM | GI80 [25]: > 100 µM | GI50 at 48 h [26]: 89.7 µM | GI20 [27]: 16.4 µM | GI80 [27]: > 100 µM | GI50 at 72 h [28]: 62.8 µM | GI20 [29]: 2.9 µM | GI80 [29]: > 100 µM | Activity [30]: Active | Activity [31]: inactive | Activity [32]: Active | Activity [33]: 16.1% | Activity [34]: 26.2% | Activity [35]: 8.4% | Activity [36]: 1.7% | selectivity ratio [37]: 5.75 | selectivity ratio [38]: 1.41 | selectivity ratio [39]: 7.17 | RatioGI50 [40]: 0.87 | RatioGI50 [41]: 1.11 | selectivity ratio at 48 h [42]: 4.1 | selectivity ratio at 72 h [43]: 8.9 | selectivity ratio at 72 h [44]: 3 | selectivity ratio at 48 h [45]: 1500 | selectivity ratio at 72 h [46]: 1570

— ChEMBL document CHEMBL5055656, “Synthesis of novel indole-thiazolidinone hybrid structures as promising scaffold with anticancer potential” (Bioorg Med Chem, 2021)
